Experimental data: US6635786B2, “Symmetrically disubstituted aromatic compounds and pharmaceutical compositions for inhibiting poly (ADP-ribose) glycohydrolase, and methods for their use” (Guilford Pharmaceuticals, Inc., priority 2001, dated 2003)

Assays:
human PARG = molecular target: T1, human PARG (Homo sapiens, UniProt Q86W56); assay: PARG enzymatic assay; format: biochemical; settings: recombinant GST-fused human PARG (aa 378-976); 3H-labeled poly-(ADP-ribose) substrate; 23° C., 10 min
T1 construct: human PARG from amino acid 378 to 976; GST (glutathione-S-transferase, pGEX-4T1) (N); made in house; host or cells: E. coli BL21
Protocol: The potency of PARG inhibition was determined in a PARG enzymatic assay. For each compound, various doses were used to inhibit the PARG reaction. A dose responsible curve was generated to determine the IC50 value and the concentration (in μM) required to achieve 50% inhibition of the reaction.
The PARG assay consisted of (a) preparation of 3H-labeled radioactive PARG as substrate, (b) purification of recombinant PARG, (c) incubation of the compound with the PARG reaction, (d) separation of the product by absorption to glass fiber filter and quantifying the radioactivity of ADP-ribose by scintillation counting.
3H-labeled poly-(ADP-ribose) was made by mixing labeled and unlabeled PAR. Labeled PAR was synthesized in a reaction of 50 mM Tris-HCl (pH 8.0), 4 mM MgCl2, 0.8 μg/mL activated DNA, 3 μM NAD, NEN 3H-NAD (0.1 mCi/mL), 0.8 μl/mL and 1.4 μl/mL Trevigen PARP. The reaction was incubated at room temperature for 60 min, then dialyzed to remove unincorporated 3H NAD using a MWCO 7000 dialysis cassette in 50 mM Phosphate buffer (pH 7.1) at 5° C. over night. Buffer was changed and dialysis continued for 2 h in the morning. The resulting 3H PAR gave 80,000 DPM/10 μL by scintillation counting.
Unlabeled PAR was synthesized in a reaction that consisted of 50 mM Tris-HCl (pH 8.0), 4 mM MgCl2, 0.8 μg/mL activated DNA, 150 μM NAD, and 1.9 μl/mL Trevigen PARP. The reaction was incubated at room temperature for 60 min, and dialyzed to remove unincorporated NAD in a MWCO 7000 cassette using 50 mM Phosphate buffer (pH 7.1) over night at […]. Buffer was changed and dialysis continued for 2 h in the morning. The OD260 of synthesized PAR is […].
The final PAR mix is made by combining 3H-PAR and PAR synthesized @ 150 μM NAD so that the OD260=0.2-0.3 and the DPM/10 μL=10,000 DPM (SA=0.45 Ci/mmole). EDTA was added to 1 mM.
A cDNA fragment encoding the carboxy terminal part of human PARG from amino acid 378 to 976 was amplified by polymerase chain reaction with human thymus cDNA (Clontech, Palo Alto, Calif.) as a template and a pair of primers with the sequences of 5′-[…]-3′ and 5′-[…]-3′. The primers contained the restriction enzyme sites EcoRI and XhoI. The PCR amplified PARG DNA fragment was digested with EcoRI and XhoI, and then ligated to the same sites in pGEX-4T1 plasmid (acquired from Pharmacia/Upjohn Co., Kalamazoo, Mich.) to create pGEX-PARG by using standard molecular biology procedure. The pGEX-PARG was transformed into E. coli strain BL21 for expressing the recombinant protein that has a glutathione-S-transferase at the amino terminus and fused in frame with PARG at the carboxy terminus. The recombinant protein was expressed and purified using glutathione-sephadex 4B beads according to the standard methodology.
A range of potential PARG inhibitors at final concentrations of 200.0 to 0.1 μM were tested, each point done in triplicate. The compounds were dissolved in DMSO resulting in a final DMSO concentration of 5.0%. The reaction was carried out in a volume of 0.1 mL. PARG enzyme was added to a concentration of 0.05 μL/mL to microtiter plates containing approximately 10 μM 3H-labeled poly-(ADP-ribose) in 50 mM Phosphate buffer (pH 7.1), 5 mM B-mercaptoethanol. The reaction was incubated at 23° C. for 10 min. and was stopped with the addition of TCA to a final concentration of 10%.
Enzyme activity was measured by the disappearance of substrate, [poly-(ADP-ribose) polymer], which was quantified as the loss of glass fiber filter adsorbed radioactivity. The reaction was harvested onto Millipore GFC96 well filter plates using the Packard Cell Harvestor. The plates were washed three times with 70% ethanol, air dried, and the radioactivity was measured by scintillation counting.

T1 sequence (Q86W56 378-976): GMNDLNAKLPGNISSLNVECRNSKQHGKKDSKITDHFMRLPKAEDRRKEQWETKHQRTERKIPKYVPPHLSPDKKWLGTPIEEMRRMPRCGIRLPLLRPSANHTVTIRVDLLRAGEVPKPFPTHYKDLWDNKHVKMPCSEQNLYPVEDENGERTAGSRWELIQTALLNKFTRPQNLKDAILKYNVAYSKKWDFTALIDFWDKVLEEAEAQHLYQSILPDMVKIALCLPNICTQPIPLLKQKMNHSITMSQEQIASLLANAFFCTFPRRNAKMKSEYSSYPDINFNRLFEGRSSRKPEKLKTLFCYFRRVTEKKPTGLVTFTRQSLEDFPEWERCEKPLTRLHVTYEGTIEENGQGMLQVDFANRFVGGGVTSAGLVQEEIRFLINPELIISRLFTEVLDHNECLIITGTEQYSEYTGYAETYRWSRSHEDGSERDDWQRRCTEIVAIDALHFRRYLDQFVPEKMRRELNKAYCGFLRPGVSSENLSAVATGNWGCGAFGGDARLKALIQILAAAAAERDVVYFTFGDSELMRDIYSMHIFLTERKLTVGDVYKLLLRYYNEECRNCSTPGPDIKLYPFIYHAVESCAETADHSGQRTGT

Molecule	IC50 (human PARG) [µM]	melting point [°C]
O=C(CCN1CCN(c2cccc(Cl)c2)CC1)c1ccc2c(c1)Cc1cc(C(=O)CCN3CCN(c4cccc(Cl)c4)CC3)ccc1O2 [Example 60]	1.1	182 to 185
O=C(CCN1CCN(c2cccc(C(F)(F)F)c2)CC1)c1ccc2c(c1)Cc1cc(C(=O)CCN3CCN(c4cccc(C(F)(F)F)c4)CC3)ccc1O2 [Example 40, 2,7-Bis-{3-[4-(3-trifluoromethyl-phenyl)-piperazin-1-yl]-propionyl}-xanthene]	10.6	155 to 157
O=C(c1cccc(C(=O)N2CCN(c3ccccc3)CC2)c1)c1cccc(C(=O)N2CCN(c3ccccc3)CC2)c1 [Example 22]	17.1	157 to 158
O=C(CCN1CCN(c2ccc(F)cc2)CC1)c1ccc2c(c1)Cc1cc(C(=O)CCN3CCN(c4ccc(F)cc4)CC3)ccc1O2 [Example 59]	2.9	207 to 209
O=C(CCCl)c1ccc2c(c1)Cc1cc(C(=O)CCCl)ccc1O2 [Example 37, 2,7-Bis-(3-chloro-propionyl)-xanthene]	17	179 to 181
O=C(CCN1CCN(c2cccc(C(F)(F)F)c2)CC1)c1ccc2oc3ccc(C(=O)CCN4CCN(c5cccc(C(F)(F)F)c5)CC4)cc3c(=O)c2c1 [Example 41, 2,7-Bis-{3-[4-(3-trifluoromethyl-phenyl)-piperazin-1-yl]-propionyl}-xanthen-9-one]	17.5	166 to 167
COc1cc(CCNC(=O)c2cccc3c2S(=O)(=O)c2c(cccc2C(=O)NCCc2cc(OC)cc(OC)c2)O3)cc(OC)c1 [Example 52, 1,9-Bis {N-[2-(3,5-dimethoxyphenyl)ethyl]carbamoyl}-10,10-dioxo-phenoxathiin]	31.6	–
O=C(c1cccc2c1S(=O)(=O)c1c(cccc1C(=O)N1CCN(c3ccc(F)cc3)CC1)O2)N1CCN(c2ccc(F)cc2)CC1 [Example 43, 1,9-Bis{N-[4-(4-fluoro-phenyl)-piperazine-carbamoyl]}-10,10-dioxo-phenoxathiin]	5.7	–
O=C(c1cccc2c1S(=O)(=O)c1c(cccc1C(=O)N1CCN(c3ccc(C(F)(F)F)cc3)CC1)O2)N1CCN(c2ccc(C(F)(F)F)cc2)CC1 [Example 44, 1,9-Bis-{N-[4-(4-trifluoromethyl-phenyl)-piperazine]carbamoyl}-10,10-dioxo-phenoxathiin]	12	–
O=C(c1cccc2c1S(=O)(=O)c1c(cccc1C(=O)N1CCN(c3ccncc3)CC1)O2)N1CCN(c2ccncc2)CC1 [Example 46, 1,9-Bis{N-[4-(pyridin-4-yl)-piperazine]carbamoyl}-10,10-dioxo-phenoxathiin]	28.4	–
O=C(c1cccc2c1S(=O)(=O)c1c(cccc1C(=O)N1CCN(c3ccc(O)cc3)CC1)O2)N1CCN(c2ccc(O)cc2)CC1 [Example 45, 1,9-Bis{N-[4-(4-hydroxy-phenyl)-piperazine]carbamoyl}-10,10-dioxo-phenoxathiin]	37.9	–
3,9-Bis{N-[(2,3-dimethoxy-phenyl)]-methyl}fluoranthenedicarboxamide [Example 34]	31.2	–

Continued, values first:

IC50 (human PARG) [µM]	melting point [°C]	Molecule
4.3	165 to 167	O=C(NCCCc1ccccc1)c1ccc2c(c1)C(Cl)(Cl)c1cc(C(=O)NCCCc3ccccc3)ccc1-2 [Example 13, 2,7-Bis-[N-(3-phenyl-propyl)-carbamoyl]-9,9-dichloro-9H-fluorene]
15	265 to 267	O=C(NCc1ccc(Cl)c(Cl)c1)c1ccc2c(c1)C(=O)c1cc(C(=O)NCc3ccc(Cl)c(Cl)c3)ccc1-2 [Example 57, 9-Oxo-9H-fluorene-2,7-bis-(3,4-dichloro-benzylamide)]
10	160 to 163	O=C(NCc1ccc(O)c(O)c1)c1ccc2c(c1)C(=O)c1cc(C(=O)NCc3ccc(O)c(O)c3)ccc1-2 [Example 58, 9-Oxo-9H-fluorene-2,7-bis-(3,4-dihydroxy-benzylamide)]
11.3	91 to 92	O=C(OCCCc1ccccc1)c1ccc2c(c1)C(Cl)(Cl)c1cc(C(=O)OCCCc3ccccc3)ccc1-2 [Example 2, 9,9-Dichloro-9H-fluorene-2,7-dicarboxylic acid bis-(3-phenyl-propyl) ester]
6	244 to 248	O=C(NCCc1ccccc1)c1ccc(C(=O)c2ccc(C(=O)NCCc3ccccc3)cc2)cc1 [Example 18, 4,4′-Bis(N-phenethyl)carbamoyl-benzophenone]
100	199 to 201	O=C(CCN1CCN(c2ccccc2)CC1)c1ccc2oc3ccc(C(=O)CCN4CCN(c5ccccc5)CC4)cc3c(=O)c2c1 [Example 42, 2,7-Bis-[3-(4-phenyl-piperazin-1-yl)-propionyl]-xanthen-9-one]
7.1	206 to 208	O=C(CCN1CCN(c2ccccc2)CC1)c1ccc2c(c1)Cc1cc(C(=O)CCN3CCN(c4ccccc4)CC3)ccc1O2 [Example 39, 2,7-Bis-[3-(4-phenyl-piperazin-1-yl)propionyl]-xanthene]
13.5	159 to 162	O=C(OCc1ccccc1)c1ccc2c(c1)C(Cl)(Cl)c1cc(C(=O)OCc3ccccc3)ccc1-2 [Example 1, 9,9-Dichloro-9H-fluorene-2,7-dicarboxylic acid bis-benzyl ester]
21.8	–	O=C(NCc1ccccc1)c1ccc2c(c1)C(=O)c1cc(C(=O)NCc3ccccc3)ccc1-2 [Example 17, 2,7-Bis(N-benzylcarbamoyl)-9-Oxo-9H-fluorene]
27.1	–	O=C(OCc1ccc2ccccc2c1)c1ccc2c(c1)C(Cl)(Cl)c1cc(C(=O)OCc3ccc4ccccc4c3)ccc1-2 [Example 10, 9,9-Dichloro-9H-fluorene-2,7-dicarboxylic acid bis-(2-naphthalen-2-yl-methyl) ester]
65.6	–	O=C(NCCc1ccccc1)c1cccc(C(=O)c2cccc(C(=O)NCCc3ccccc3)c2)c1 [Example 21, 3,3′-Bis(N-phenethyl)carbamoyl-benzophenone]
11.2	–	O=C(OCCc1ccccc1)c1ccc2c(c1)C(Cl)(Cl)c1cc(C(=O)OCCc3ccccc3)ccc1-2 [Example 5, 9,9-Dichloro-9H-fluorene-2,7-dicarboxylic acid bis-(2-phenyl-ethyl) ester]
1.7	162 to 165	O=C(NCCCc1ccccc1)c1ccc2c(c1)C(=O)c1cc(C(=O)NCCCc3ccccc3)ccc1-2 [Example 16]
11.8	–	CN(CCCC(=O)c1ccc2c(c1)-c1ccc(C(=O)CCCN(C)c3ccccc3)c3cccc-2c13)c1ccccc1 [Example 53, 3,9-Bis[4-(methylphenylamino)butyryl]fluoranthene]
22	327 to 329	O=C(NCCc1ccccc1)c1ccc2c(c1)C(=O)c1cc(C(=O)NCCc3ccccc3)ccc1-2 [Example 56, 9-Oxo-9H-fluorene-2,7-bis-(phenethyl-amide)]
